Measured values as given in ChEMBL document CHEMBL1128659, “Tetramic acids as novel glycine site antagonists” (Bioorg Med Chem Lett, 1995).

Key:
[1] = molecular target: Glutamate receptor ionotropic, NMDA 1 (Rattus norvegicus) (UniProt P35439); assay: Inhibition of binding affinity of [3H]L-689,560 to the strychnine insensitive glycine site on rat brain membranes at a concentration of 100 uM; assay type: cell membranes; conditions: Membrane
[2] = pKa value was measured; assay type: physicochemical
[3] = molecular target: Glutamate receptor ionotropic, NMDA 1 (Rattus norvegicus, UniProt P35439); assay: Inhibition of binding affinity of [3H]L-689,560 to the strychnine insensitive glycine site on rat brain membranes; assay type: cell membranes, Membrane
[4] = organism: Rattus norvegicus; assay: Inhibition of N-Methyl-D-aspartate (NMDA)-induced depolarizations in rat cortical slices; assay type: functional

SMILES | inhibition [1] [%] | pKa [2] | IC50 [3] [µM] | Kb [4] [µM]
O=C1C=C(O)CN1 |  | 6.4 |  | 
C=C(C)COc1cccc(C2=C(O)/C(=C\CC)NC2=O)c1 |  |  | 3 | 15.8
CC/C=C1/NC(=O)C(c2ccccc2)=C1O |  | 4.6 | 45.5 | 115
O=C1N/C(=C\c2ccccc2)C(O)=C1c1ccccc1 |  |  | 24.2 | 
O=C1N/C(=C\C2CC2)C(O)=C1c1ccccc1 |  |  | 9.5 | 

Second part, led by results:

inhibition [1] [%] | pKa [2] | IC50 [3] [µM] | SMILES | Kb [4] [µM]
18 |  |  | O=C1N/C(=C/C2CC2)C(O)=C1c1ccccc1 | 
 |  | 15.7 | CCC/C=C1\NC(=O)C(c2ccccc2)=C1O | 154
 | 5.8 |  | O=c1cc(O)c2ccc(Cl)cc2[nH]1 | 
 |  | 0.7 | CC/C=C1/NC(=O)C(c2cccc(Oc3ccccc3)c2)=C1O | 6.15
